Patent US20180169019A1, “PROCESS FOR THE PREPARATION OF POROUS MICROPARTICLES” (BAYER PHARMA AKTIENGESELLSCHAFT, priority 2015, published 2018)

Experiment: Solubility in water and organic solvents
Type: physicochemical

## O=C(O)CCCCN(CCc1ccccc1OCc1ccc(CCc2ccccc2)cc1)Cc1ccc(C(=O)O)cc1 [Cinaciguat, 4-[((4-carboxybutyl)-{2-[(4-phenethylbenzyl)oxy]phenethyl}amino)methyl]benzoic acid]
  solubility in acetone: slightly soluble
  solubility in ethanol, methanol, ethyl acetate: very slightly soluble
  solubility in water and dichloromethane, acetonitrile: practically insoluble
